Measurements reported in ChEMBL document CHEMBL1201862, “PubChem BioAssay data set” (2004).
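Step 1: Grow cells in 96-well plates. Step 2: Expose to compound for 48 hours at 5 concentrations. Step 3: Interpolate endpoints linearly; if unreached, use highest concentration. GI50 marks 50% less growth.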 Activity calls are given as the source filed them. Rule as the data show it: active = GI50 up to about 1.1 µM and inactive = higher.

How the values were obtained:
Assay in all cases: NCI-60 cell line screen, 48 h
SNB-75 = tested on: SNB-75
MDA-MB-231 = tested on: MDA-MB-231
TK-10 = tested on: TK-10
786-0 = tested on: 786-0
A549 = tested on: A549
HOP-62 = tested on: HOP-62
NCI-H23 = tested on: NCI-H23
SNB-19 = tested on: SNB-19
U-251 = tested on: U-251
T47D = tested on: T47D
MOLT-4 = tested on: MOLT-4
HCT-116 = tested on: HCT-116
UACC-257 = tested on: UACC-257
NCI-H460 = tested on: NCI-H460
OVCAR-8 = tested on: OVCAR-8
COLO 205 = tested on: COLO 205
PC-3 = tested on: PC-3
HCC 2998 = tested on: HCC 2998
ACHN = tested on: ACHN
HOP-92 = tested on: HOP-92

Measured: GI50

Cc1c(-c2ccccc2)c(-c2ccc(OCCN(C)C)cc2)n2ccccc12
inactive: SNB-75 8.38 µM | MDA-MB-231 10.9 µM | TK-10 13.2 µM | 786-0 7.11 µM | A549 13.9 µM | HOP-62 13.1 µM | NCI-H23 16.6 µM | SNB-19 12 µM | U-251 7.76 µM | T47D 10.4 µM | MOLT-4 3.48 µM | HCT-116 5.61 µM | UACC-257 2.04 µM | NCI-H460 2.51 µM | OVCAR-8 13.8 µM | COLO 205 1.64 µM | PC-3 6.34 µM | HCC 2998 1.69 µM | ACHN 13.9 µM | HOP-92 8.59 µM
